Active and inactive are the calls of the source. The rule behind the calls is not given here.

These results are taken from ChEMBL document CHEMBL4304775, “Identification and characterization of a novel chemotype for human TLR8 inhibitors” (Eur J Med Chem, 2019).

In one series the target is T1, Toll-like receptor 8 (Homo sapiens, UniProt Q9NR97).
T1 sequence (Q9NR97 whole entry): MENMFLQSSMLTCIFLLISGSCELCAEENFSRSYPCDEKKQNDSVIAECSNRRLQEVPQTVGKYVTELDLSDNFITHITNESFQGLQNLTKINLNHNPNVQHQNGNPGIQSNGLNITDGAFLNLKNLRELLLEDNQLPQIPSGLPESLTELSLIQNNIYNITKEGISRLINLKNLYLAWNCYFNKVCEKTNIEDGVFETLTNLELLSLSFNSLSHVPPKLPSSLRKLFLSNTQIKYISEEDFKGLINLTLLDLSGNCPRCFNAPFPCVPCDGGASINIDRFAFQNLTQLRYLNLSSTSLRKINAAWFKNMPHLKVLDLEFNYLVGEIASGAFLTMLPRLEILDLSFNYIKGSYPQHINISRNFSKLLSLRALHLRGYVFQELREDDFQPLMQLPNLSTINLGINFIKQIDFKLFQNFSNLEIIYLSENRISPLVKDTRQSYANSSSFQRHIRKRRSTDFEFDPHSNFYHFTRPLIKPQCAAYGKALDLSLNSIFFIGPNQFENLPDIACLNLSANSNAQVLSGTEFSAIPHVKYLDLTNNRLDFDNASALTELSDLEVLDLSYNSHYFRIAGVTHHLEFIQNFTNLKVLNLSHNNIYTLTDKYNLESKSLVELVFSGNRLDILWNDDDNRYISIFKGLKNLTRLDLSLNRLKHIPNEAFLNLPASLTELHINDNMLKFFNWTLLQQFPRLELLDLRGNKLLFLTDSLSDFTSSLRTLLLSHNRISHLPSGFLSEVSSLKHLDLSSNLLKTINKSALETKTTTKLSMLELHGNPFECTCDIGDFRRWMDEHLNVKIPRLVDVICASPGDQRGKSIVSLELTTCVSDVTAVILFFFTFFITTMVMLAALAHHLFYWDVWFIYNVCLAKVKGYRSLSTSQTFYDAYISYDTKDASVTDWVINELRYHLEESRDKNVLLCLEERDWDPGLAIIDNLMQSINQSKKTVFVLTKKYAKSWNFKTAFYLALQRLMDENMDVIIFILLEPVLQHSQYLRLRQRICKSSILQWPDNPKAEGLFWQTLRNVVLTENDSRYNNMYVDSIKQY
The experiment in a line: (§1) Antagonist activity at human TLR8 expressed in HEK-Blue cells assessed as inhibition of CL075-induced NF-kappaB activation incubated for 1 hr followed by CL075-stimulation and measured after 24 hrs by quanti-blue SEAP assay. The format is cell-based.

In series [1] the target is T2, Toll-like receptor 9 (Homo sapiens) (UniProt Q9NR96).
T2 sequence (whole entry): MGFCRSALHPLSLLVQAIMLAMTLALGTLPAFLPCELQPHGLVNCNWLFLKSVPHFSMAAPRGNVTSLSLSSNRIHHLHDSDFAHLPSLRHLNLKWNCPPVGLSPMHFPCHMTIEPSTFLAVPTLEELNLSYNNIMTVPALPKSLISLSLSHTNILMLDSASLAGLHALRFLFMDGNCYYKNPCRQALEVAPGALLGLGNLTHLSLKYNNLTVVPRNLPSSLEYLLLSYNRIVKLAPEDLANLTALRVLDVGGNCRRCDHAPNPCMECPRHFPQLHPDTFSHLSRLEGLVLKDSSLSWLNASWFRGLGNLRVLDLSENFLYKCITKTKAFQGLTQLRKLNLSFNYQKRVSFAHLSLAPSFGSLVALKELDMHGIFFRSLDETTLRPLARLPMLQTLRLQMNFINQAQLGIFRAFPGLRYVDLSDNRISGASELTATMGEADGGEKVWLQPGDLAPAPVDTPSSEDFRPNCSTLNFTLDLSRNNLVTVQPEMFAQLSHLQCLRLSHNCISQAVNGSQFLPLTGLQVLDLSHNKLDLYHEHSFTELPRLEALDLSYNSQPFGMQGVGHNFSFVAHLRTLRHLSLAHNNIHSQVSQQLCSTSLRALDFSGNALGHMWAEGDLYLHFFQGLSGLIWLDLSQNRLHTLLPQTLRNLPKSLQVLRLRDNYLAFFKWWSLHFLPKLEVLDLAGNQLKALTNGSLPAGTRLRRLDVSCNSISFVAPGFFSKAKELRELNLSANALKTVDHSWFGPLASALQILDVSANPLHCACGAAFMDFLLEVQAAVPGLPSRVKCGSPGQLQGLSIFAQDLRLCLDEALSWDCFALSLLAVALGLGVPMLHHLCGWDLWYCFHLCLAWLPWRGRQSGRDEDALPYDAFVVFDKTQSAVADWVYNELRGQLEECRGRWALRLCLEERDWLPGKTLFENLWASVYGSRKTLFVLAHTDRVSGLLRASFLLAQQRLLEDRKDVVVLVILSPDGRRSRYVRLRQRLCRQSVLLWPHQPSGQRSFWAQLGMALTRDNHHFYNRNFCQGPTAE
Put plainly: […] at TLR9 in human THP1 cells assessed as inhibition of ODN2006-induced IL-8 secretion preincubated for 1 hr followed by ODN2006-stimulation and measured after 24 hrs by ELISA. Type of series: cell-based. (An ELISA detects its analyte on a solid surface through an enzyme-linked reagent.)

Series [2] deals with THP-1. Put plainly: Antiinflammatory activity in human THP1 cells assessed as reduction in CL075-induced IL-8 secretion at 10 to 25 uM preincubated for 1 hr followed by CL075-stimulation and measured after 24 hrs by ELISA relative to control. Type of series: functional.
Series [3] deals with T3, Toll-like receptor 8 (Homo sapiens) (UniProt Q9NR97).
T3 sequence (whole entry): T1 sequence (Q9NR97 whole entry)
The experiment in a line: Antagonist activity at human TLR8 expressed in HEK-Blue cells assessed as reduction in CL075-induced NF-kappaB activation at 10 uM incubated for 1 hr followed by CL075-stimulation and measured after 24 hrs by quanti-blue SEAP assay. The format is cell-based.

For series [4], the target named is Toll-like receptor 3 (Homo sapiens) (UniProt O15455). Put plainly: […] at TLR3 in human THP1 cells assessed as inhibition of poly(I:C)-induced IL-8 secretion preincubated for 1 hr followed by poly(I:C)-stimulation and measured after 24 hrs by ELISA. Type of series: cell-based.
Toll-like receptor 3 (Homo sapiens), sequence (O15455 whole entry): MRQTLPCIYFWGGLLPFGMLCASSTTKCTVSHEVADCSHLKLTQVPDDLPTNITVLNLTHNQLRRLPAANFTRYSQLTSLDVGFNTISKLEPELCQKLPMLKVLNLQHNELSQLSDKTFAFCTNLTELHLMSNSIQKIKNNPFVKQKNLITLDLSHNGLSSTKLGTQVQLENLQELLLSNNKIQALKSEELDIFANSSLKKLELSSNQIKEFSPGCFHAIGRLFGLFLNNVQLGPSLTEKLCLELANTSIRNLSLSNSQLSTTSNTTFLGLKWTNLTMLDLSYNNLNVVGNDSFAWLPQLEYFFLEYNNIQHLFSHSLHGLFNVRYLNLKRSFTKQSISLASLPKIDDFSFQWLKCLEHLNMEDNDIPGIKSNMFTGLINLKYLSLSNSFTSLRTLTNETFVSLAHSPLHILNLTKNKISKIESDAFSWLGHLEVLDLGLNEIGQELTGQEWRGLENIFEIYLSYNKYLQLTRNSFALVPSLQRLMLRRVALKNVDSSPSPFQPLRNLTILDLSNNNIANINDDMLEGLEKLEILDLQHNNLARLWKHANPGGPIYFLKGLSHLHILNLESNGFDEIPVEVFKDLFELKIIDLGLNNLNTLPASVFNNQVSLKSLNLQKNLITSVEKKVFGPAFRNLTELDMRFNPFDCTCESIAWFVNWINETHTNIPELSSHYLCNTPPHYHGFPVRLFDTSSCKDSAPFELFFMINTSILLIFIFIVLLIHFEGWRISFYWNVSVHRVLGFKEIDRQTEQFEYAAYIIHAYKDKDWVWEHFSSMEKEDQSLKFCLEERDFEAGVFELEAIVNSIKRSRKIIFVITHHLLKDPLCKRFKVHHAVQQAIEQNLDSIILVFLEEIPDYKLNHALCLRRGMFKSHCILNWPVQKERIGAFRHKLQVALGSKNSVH
A short description of series [5]: Cytotoxicity against human HEK-Blue cells transfected with hTLR8 at 25 to 50 uM after 24 hrs by MTT assay. Type of series: cell-based. For orientation: Formazan colour is commonly taken as a measure of viable cells.
Series [6] has as its system THP-1. The experiment in a line: Cytotoxicity against human THP1 cells at 25 to 100 uM after 24 hrs by MTT assay. Particulars: thp-1, 24 h. Type of series: cell-based.
Series [7] deals with THP-1. Put plainly: Cytotoxicity against human THP1 cells assessed as reduction in cell viability at 50 uM after 24 hrs by MTT assay. The format is cell-based. The note with it: thp-1, 24 h.
Series [8] deals with T3, Toll-like receptor 8 (Homo sapiens). Described as §1. Type of series: cell-based.
A short description of series [9]: Cytotoxicity against human HEK-Blue cells transfected with hTLR8 assessed as reduction in cell viability at 50 uM after 24 hrs by MTT assay. Type of series: cell-based.

As a reminder, the IC50 is the concentration that inhibits the measured activity by half. In the case of `FC(F)(F)c1cc(-c2ccccc2)nc(NCc2cccs2)n1`, at Toll-like receptor 8, the IC50 turned out to be 20 µM. The inhibition entry in series [1] and in [4] was “inactive” in each case. Besides, the “inhibition (INH)” value with THP-1 [2] is listed as over 70%. The inhibition entry in series [3] is “Active”. Besides, the Activity entry (in series [5]; in the series with THP-1 [6]) was “Non-Toxic” in each case.
`FC(F)(F)c1cc(-c2ccco2)nc(NCc2cccs2)n1`: the Activity entry (in the series on THP-1 [7]; in series [9]) was “Toxic” in each case. For the same compound, the IC50 at Toll-like receptor 8 came to 9.2 µM. Further, the inhibition entry in [8] is “Dose-dependent effect”. In addition, the inhibition entry in series [1] and in series [4] was “inactive” throughout. Also, the “inhibition (INH)” value in the series on THP-1 [2] was over 70%. For the same compound, the inhibition result in series [3] is “Active”.
For `CCCCNc1nc(-c2cccs2)cc(C(F)(F)F)n1`, the IC50 at Toll-like receptor 8 is 35.5 µM. The inhibition result in series [1] and in [4] was “inactive” each time. Further, in the series with THP-1 [2], the “inhibition (INH)” value is given as 50%. Moreover, the inhibition result in series [3] is “Active”. In addition, the Activity result (in [5]; with THP-1 [6]) was “Non-Toxic” in each case.
